From publication PMC7278358, “Kinetic parameters of human aspartate/asparagine–β-hydroxylase suggest that it has a possible function in oxygen sensing” (The Journal of Biological Chemistry, 2020)
Several values for one entry are separate records, joined by “and”; a condition that tells them apart may be missing. Equal entries are not always repeated. Where two headings read alike, the source gives them in different places.

Key:
[1] = molecular target: T1, human His6–AspH315–758 (Homo sapiens, UniProt Q12797); experiment: AspH O2 dependence (variable O2 partial pressures, SPE-MS); type: biochemical; settings: n = 4
T1 construct: a pET-28a(+) vector encoding for N-terminal His6-tagged AspH315–758 (His6–AspH315–758) was transformed into Escherichia coli BL21 (DE3) cells; made in house; host or cells: Escherichia coli BL21 (DE3)
T1 sequence (Q12797 315-758): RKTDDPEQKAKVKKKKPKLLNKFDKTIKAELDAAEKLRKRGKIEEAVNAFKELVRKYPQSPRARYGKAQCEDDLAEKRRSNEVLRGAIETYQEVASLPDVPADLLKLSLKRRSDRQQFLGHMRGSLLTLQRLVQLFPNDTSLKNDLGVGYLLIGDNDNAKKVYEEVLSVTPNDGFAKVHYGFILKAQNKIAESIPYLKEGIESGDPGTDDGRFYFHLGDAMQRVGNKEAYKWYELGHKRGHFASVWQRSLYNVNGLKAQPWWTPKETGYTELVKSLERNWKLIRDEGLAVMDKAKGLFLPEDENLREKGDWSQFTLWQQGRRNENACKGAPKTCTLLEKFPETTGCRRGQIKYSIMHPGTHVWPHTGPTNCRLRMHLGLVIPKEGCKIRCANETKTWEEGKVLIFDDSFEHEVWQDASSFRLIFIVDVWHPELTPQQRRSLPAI
Method: For determining vmax^app and Km^app of AspH for O2, 2.2 μM hFX–CP101–119 (65 μl) in 50 mM HEPES (pH 7.5) were exposed in a gas-tight glass vial to variable O2 concentrations (in nitrogen; Fig. S7) using a mass flow controller ([32]). After equilibrating the atmosphere, co-factor and co-substrates were added by syringe (1.5 μl of 4.7 mM LAA and 0.99 mM 2OG in MQ-grade water and 1.5 μl of 0.99 mM FAS in MQ-grade water) followed by 2.0 μl of 3.5 μM His6–AspH315–758 in 50 mM HEPES (pH 7.5) at 20 °C. The enzyme reaction was stopped after the indicated reaction time by the addition of 15% (v/v) aqueous formic acid (4 μl) and analyzed by SPE-MS using the configurations given above; the experiments were performed in independent quadruplicates. The data were analyzed as described, and the slopes of the initial reaction rates (Fig. S7) were fitted to a Michaelis–Menten plot using nonlinear regression (GraphPad Prism 5).

[2] = tested on: FIH; settings: peptide substrate HIF-1α CAD35mer, same experimental setup, cited from earlier work
Source text: (§1) At higher partial pressures of O2, the standard deviation among independent quadruplicates increased slightly because of efficient peptide hydroxylation requiring short reaction times; however, maximum velocities (vmax^app) were still similar within experimental error, indicating good data quality and reproducibility (Fig. S7). The AspH Km^app for O2 is high compared with the values reported for most oth ...

[3] = tested on: KDM4A; settings: cited from earlier work
Source text: as §1

[4] = tested on: KDM4C; settings: read-out: Km app(O2); cited from earlier work
Source text: as §1

[5] = tested on: KDM4E; settings: read-out: Km app(O2); cited from earlier work
Source text: as §1

[6] = tested on: KDM6A; settings: read-out: Km app(O2); cited from earlier work
Source text: as §1

[7] = tested on: PHD2; settings: same experimental setup, cited from earlier work; for Km: read-out: Km app for O2
Source text: as §1

[8] = tested on: collagen prolyl 4-hydroxylases; settings: read-out: Km app(O2); cited from earlier work
Source text: as §1

[9] = tested on: human phytanoyl-CoA hydroxylase; settings: read-out: Km app(O2); cited from earlier work
Source text: as §1

[10] = O2 varied, hFX–CP101–119 substrate

- Km app of AspH for O2 [%] ([1]; O2 in nitrogen, 100 μM LAA, 20 μM 2OG, 20 μM FAS, 2.0 μM hFX-CP101-119, 0.1 μM His6-AspH315-758, pH 7.5, 20 °C): 47.2 ± 8.1 % O2
- vmax app ([1]; O2 varied (in nitrogen), 100 μM LAA, 20 μM 2OG, 20 μM FAS, 2.0 μM hFX–CP101–119, 0.1 μM His6–AspH315–758, 50 mM HEPES pH 7.5, 20 °C): 0.0207 ± 0.0018 µM/s
- Km ([1]; O2 varied (in nitrogen), 100 μM LAA, 20 μM 2OG, 20 μM FAS, 2.0 μM hFX–CP101–119, 0.1 μM His6–AspH315–758, 50 mM HEPES pH 7.5, 20 °C, O2 % converted by y[μM] = 9.026·x[%], read-out: Km app for O2): ~426 µM and 426 µM
- kcat [1, 10]: 0.23 ± 0.04 s⁻¹
- kcat/Km [1, 10]: 540 ± 130 M⁻¹ s⁻¹
Structure (SMILES): O=O [O2]
- kcat [2]: 0.56 ± 0.04 s⁻¹
- Km ([2]; read-out: Km app for O2): ~110 µM and 110 µM
- Km ([3]; peptide substrate H3_1–15K9me3, same experimental setup, read-out: Km app for O2): ~173 µM and 173 µM
- Km ([3]; read-out: Km app(O2)): 57 ± 10 µM
- Km [4]: 158 ± 13 µM
- Km [5]: 197 ± 16 µM
- Km [6]: 180 ± 40 µM
- kcat ([7]; peptide substrate HIF-1α CODD): 0.06 ± 0.01 s⁻¹
- Km ([7]; peptide substrate HIF-1α CODD): 460 ± 30 µM
- kcat ([7]; peptide substrate HIF-1α NODD): 0.028 ± 0.001 s⁻¹
- Km ([7]; peptide substrate HIF-1α NODD): > 450 µM
- Km [8]: 40 µM
- Km [9]: 93 ± 43 µM
